# Results reported in US20110046223A1, “TREATMENT OF NEUROFIBROMATOSIS” (RAMOT AT TEL-AVIV UNIVERSITY LTD., priority 2006, published 2011).
# How the values were obtained:
# Ras-GTP = assay: serum-stimulated GTP loading of Ras, kinetic study; type: cell-based, human
# Method: Unless otherwise indicated, cells were lysed 48 hours after being treated with lysis buffer, as described in Haklai, et al., supra. Lysates containing 50-100 μg protein were subjected to SDS-PAGE followed by Western immunoblotting, as described in Haklai, et al., supra.; Elad-Sfadia, G., Haklai, R., Ballan, E., Gabius, H. J., Kloog, Y., J. Biol. Chem. 277:37169-75 (2002); Paz, A., Haklai, R., Elad, G., Ballab, E., Kloog, Y., Oncogene 20:7486-93 (2000), with one of the following antibodies: 1:2000 pan-Ras Ab-3; 1:10,000 anti-phospho-ERK Ab; 1:2000 anti-ERK Ab; 1:1000 anti-Akt Ab; 1:2000 anti-phospho-Akt Ab; 1:500 antitubulin Ab; 1:5000 anti-RalA Ab; 1:1000 anti-p120 RasGAP Ab; or 1:200 anti-neurofibromin Ab. The immunoblots were then exposed either to 1:7500 peroxidase goat anti-mouse IgG or to 1:2000 peroxidase goat anti-rabbit IgG. Protein bands were visualized by ECL and quantified by densitometry with Image Master VDS-CL (Amersham) using TINA 2.0 software (Ray Tests). To obtain reliable comparisons between replicated experiments for statistical analysis, a standardization procedure was used, in which the density of each given protein band as recorded with its specific Ab, was normalized. Normalization was achieved by collecting and averaging all the data obtained for a given band (for example, for the Ras-GTP band) in a set of experiments, irrespective of cell type or treatment. The standard average density was defined as 1.0, and each of the individually determined bands was related to this value. Accordingly, the normalized value of a single band would be 1.0 if it was equal to the standard value, or would range between values above and below 1.0 (respectively representing values higher and lower than the standard). The normalized values thus obtained were used to calculate means±SD and, to determine, using Student's t-test, the statistical significance of differences between populations. Lysates containing 500 μg protein were used to determine Ras-GTP by the GST-RBD pull-down assay, and this was followed by Western immunoblotting with pan anti-Ras Ab as described in Elad-Sfadia, G., et al., supra. Lysates containing 500 μg protein were used to determine RalA-GTP by the GST-RalBD pulldown assay, followed by Western immunoblotting with anti-RalA Ab [Wolthuis, R. M., Zwartkruis, F., Moen, T. C., Bos, J. L. Ral. Curr. Biol. 8:471-4 (1998)]. Actin cytoskeletal elements were labeled with rhodamine-phalloidin, and digital fluorescence images were collected on a Zeiss LSM 510 confocal microscope fitted with fluorescein and rhodamine filters, as described in Gana-Weisz, M., et al., supra.
# First, the time courses of serum-stimulated GTP loading of Ras and serum-stimulated activation of signals downstream of Ras were determined. […]
# ST88-14 cells = assay: soft agar assay, anchorage-independent growth; type: cell-based; settings: Homo sapiens, 504 h, 3 weeks, read-out: inhibition of colony formation
# Method: (§1) Noble agars (2% and 0.6%; Difco, Sparks, Md.) were prepared in double-distilled water and autoclaved. The 2% agar was melted and mixed with medium (DMEM X2 with 20% FCS, 100 μg/mL penicillin, and […]) and the mixture (50 μL) was placed in 96-well plates to provide the base agar (at a final concentration of 1%).
# (§2) To determine whether FTS inhibited the transforming activity associated with NF-1-deficiency and to determine the effect of FTS on anchorage-independent growth, soft agar assays were performed. ST88-14 and STS26T cells were plated in soft agar and then treated with 0.1% DMSO as a control or with FTS (25 μM, 50 μM, or 75 μM) and grown for 3 weeks or 2 weeks, respectively. […] FTS inhibited colony formation of both cell lines; in the presence of 50 μM FTS, for example, colony formation was inhibited by 60% in STS26T cells and by 57% in ST88-14 cells. In the presence of 75 μM FTS, colony formation was inhibited by 84% and 87% in ST88-14 and STS26T cells, respectively.
# STS26T cells = assay: soft agar assay, anchorage-independent growth; type: cell-based; settings: Homo sapiens, STS-26T, 336 h, 2 weeks, read-out: inhibition of colony formation
# Method: as §1, §2
# phospho-Akt = assay: steady-state phospho-Akt, Western immunoblotting; type: cell-based, human
# Method: Unless otherwise indicated, cells were lysed 48 hours after being treated with lysis buffer, as described in Haklai, et al., supra. […] Protein bands were visualized by ECL and quantified by densitometry with Image Master VDS-CL (Amersham) using TINA 2.0 software (Ray Tests). To obtain reliable comparisons between replicated experiments for statistical analysis, a standardization procedure was used, in which the density of each given protein band as recorded with its specific Ab, was normalized. […] The standard average density was defined as 1.0, and each of the individually determined bands was related to this value. […] Actin cytoskeletal elements were labeled with rhodamine-phalloidin, and digital fluorescence images were collected on a Zeiss LSM 510 confocal microscope fitted with fluorescein and rhodamine filters, as described in Gana-Weisz, M., et al., supra.
# Next, to determine whether down-regulation of active Ras by FTS was accompanied by inhibition of Ras signaling, the effect of FTS on steady-state levels of phospho-ERK, phospho-Akt, and RalA-GTP as read-outs of the three prominent Ras pathways, Ras/Raf/MEK/ERK, Ras/PI3K/Akt, and Ras/RalGEF/RalA, respectively, was examined. […]
compound,measurement,setting,value
"CC(C)=CCC/C(C)=C/CC/C(C)=C/CSc1ccccc1C(=O)O [FTS, S-farnesylthiosalicylic acid]",duration of the Ras signal in the presence of FTS,"Ras-GTP; NF-1 cells, serum stimulation",5 to 10 min
same,serum-stimulated increase in Ras-GTP,"Ras-GTP; STS26T cells, 20 μM FTS, serum-starved 24 hours, stimulated with 10% serum",strongly inhibited
same,"duration of the serum-stimulated signals (Ras-GTP, phospho-ERK, phospho-Akt)",Ras-GTP; all NF-1 cell lines,shortened the duration of the signals
same,serum-stimulated increase in Ras-GTP,"Ras-GTP; all NF-1 cell lines (T265P21, ST88-14, 90-8)",reduced
same,inhibition at 50 µM,ST88-14 cells; 50 μM FTS,57%
same,inhibition at 75 µM,ST88-14 cells; 75 μM FTS,84%
same,inhibition at 50 µM,STS26T cells; 50 μM FTS,60%
same,inhibition at 75 µM,STS26T cells; 75 μM FTS,87%
same,steady-state phospho-Akt,phospho-Akt; all NF-1 cell lines,significant reduction
same,increase in phosphor-Akt,"phospho-Akt; non-NF-1 STS26T cells, steady state",10%-20%
